Measurements: patent US20240181001A1, “TREATMENT” (Queen Mary University London, priority 2021, published 2024)
“Also recorded” adds a separate entry of the source.

Key:
[1] = Side effects in C57/BL6 mice: body weight, lymphocytes, creatinine; format: in vivo, mouse; conditions: Cis^3/anti-PD-1/anti-CTLA-4 and 29P, compared with Cis^6/anti-PD-1/anti-CTLA-4, placebo or single agent 29P
Method: FIG. 3 illustrates that 29P treatment sensitizes KP tumors to current immunotherapies and chemotherapies. […] (A, B, E) Representative images of hematoxylin-eosin stained lungs and quantification of number of tumor foci and tumor burden. […] (D) C57/BL6 mice were treated with Placebo, 29P, Cis^6/α-PD-1+α-CTLA-4 and Cis^3/α-PD-1+α-CTLA-4/29P. […] (F) Representative images of hematoxylin-eosin stained lungs (left) and quantification of mouse body weights and tumor burden (right). N.S. Not significant/p>0.05, *p<0.05, **p<0.01, ***p<0.001. (A,B,D-F) ordinary One-way ANOVA with Tukey's multiple comparison test, for not normally distributed data Kruskal-Wallis test with Dunn's multiple comparison test, (C) Mantel-Cox test, n=5-8 per treatment. Scale bars: 5 mm in H&E staining.

KP tumors = format: in vivo, mouse
Method: Kras^LSL-G12D/+; Trp53^flox/flox (referred to as KP) were used to generate lung adenocarcinomas by administering Ad-Cre (Cre recombinase Adenovirus) 5×10^7 PFU as previously described (DuPage et al, 2009; Cortez-Retamozo et al, 2013; Pfirsche et al, 2016).
CTLA-4 mAb (clone—9D9) (Bio X Cell) 100 μg/mouse was administered twice a week over 3 weeks. Rat IgG2a isotype control, anti-trinitrophenol (Clone 2A3) (Bio X Cell) 100 μg/mouse was administered twice a week during 3 weeks.
For VEGFR2 inactivation, KP mice were administered with anti-VEGFR2 (clone DC101, Bio X Cell) twice per week during three weeks.
In order to deplete CD8+ cells, KP mice were administered with anti-CD8α mAb intraperitoneally (clone YTS 169.4, BioXcell) twice per week after the first day of treatment and until the end of the experiments.
In order to deplete IFN-γ, KP mice were administered with anti-IFN-γ mAb intraperitoneally (XMG1.2, Bio X Cell) twice per week after the first day of treatment and until the end of the experiments. To deplete CXCL9, KP mice were administered with anti-CXCL9 mAb intraperitoneally (MIG-2F5.5, Bio X Cell) twice per week after the first day of treatment and until the end of the experiments. […]

KP lung tumor cells = assay: Cell survival assay (MTS), KP cells; format: cell-based, mouse; conditions: increasing concentrations of cisplatin alone or with 2nM 29P
Method: The lung adenocarcinoma cell line KP53 F1 was derived from lung tumors of C57BL/6 KP mice and was kindly provided by Dr. S A. Quezada, UCL Cancer Centre (University College London, UK).
(§1) A549 or KP cell survival was analyzed using the CellTiter96® Aqueous One Solution Reagent (Promega #G3582) according to the manufacturer's instructions. Briefly, 1000 cells were seeded into 96-well plated. Cells were treated the following day and the solution reagent was added after 72 hours of treatment. Plates were read using a wavelength of 490 nm.

[2] = test system: human lung adenocarcinoma (A549) cells; assay: Cell survival assay (MTS), A549 cells; format: cell-based; conditions: increasing concentrations of cisplatin alone or with 2nM 29P
Method: A549 and LLC cells were purchased from ATCC. Mouse Lung Endothelial cells (EC) were obtained and cultured as previously described (34).
as §1

KP tumor burdened lung = assay: Flow cytometry of lungs bearing KP tumors; format: in vivo, mouse; conditions: cisplatin treatment
Method: Tumors were minced and incubated at 37° C. for 20 min in an enzymatic cocktail containing DNase (0.5 mg/ml, Sigma). Liberase (2 mg/ml, Sigma) in HBSS (Sigma) was used to make a single cell suspension for pancreatic tumors. For breast tumors, collagenase/dispase (1 mg/ml, Sigma) in PBS, was used to make a single cell suspension. Cells were passed through a […] filter (BD Biosciences), washed in PBS supplemented with 2% foetal bovine serum and 2 mM EDTA, counted and used immediately for flow cytometry. Before cells were stained with specific antibodies, nonspecific binding sites were blocked with Fcγ R III/II TruStain fcX (93, Biolegend). Staining was performed in PBS supplemented with 2% foetal bovine serum and 2 mM EDTA. The following fluorochrome-conjugated antibodies were used: anti-CD45 (30-F11), anti-CD3 (145-2C11), anti-CD4 (L3T4), anti-CD8 (53-6.7), anti-CD69 (H1.2F3), anti-CD44 (IM7), anti-CD62L (MEL-14), anti-CD19 (6D5), anti-CD11b (M1/70), anti-F4/80 (BM8) from Biolegend; anti-PD1 (RMP1-30), anti-Gr1 (RB6-8C5) and anti-Ly6C (HK1.4) from eBioscience. Fixable viability dye (FVD) (eBioscience) was used to discriminate between live and dead cells. Acquisition and analyses were performed on a BD LSRII system using BD […] software (BD Biosciences). The percentage of cells were analysed using FlowJo software (version 10.0.8 tree Star). Dead cells were excluded from the analysis on the basis of FVD and SSC gating. Cell doublets were excluded from the analysis by gating for FSC area versus FSC width. CD45+ cells were used to include leukocytes only in the data analysis.

With `CCCCCCOC(=O)N=C(NCCC[C@@H]1NC(=O)[C@@H](C(C)C)N(C)C(=O)[C@H](C)N(C)C(=O)[C@H](C)NC(=O)[C@H](CC(=O)OC)NC(=O)CNC1=O)NC(=O)OCCCCCC` [29P, c(*vR(Hoc)2GD(OMe)A*A)] the body weight [1] was “restored; also recorded: significantly improved parameters”, the creatinine levels [1] was “restored; also recorded: significantly improved parameters” and the lymphocyte numbers [1] was “restored; also recorded: significantly improved parameters”. For the same molecule, the “weight loss side effect” value (KP tumors; mouse, in vivo) was “without apparent adverse weight loss side effects”, the “cisplatin cytotoxicity with 29P addition (MTS cell viability)” value (KP lung tumor cells) was “independent of 29P addition” and the “cisplatin cytotoxicity with 29P addition (MTS cell viability)” value [2] was “independent of 29P addition”.
With `N.N.[Cl][Pt][Cl]` [cisplatin] the anti-tumor effect (KP tumors; KP mice, Cis^6 (cisplatin 6 mg/kg) alone) was “clear anti-tumor effect”, the “T cell (CD4+ and CD8+) numbers” value (KP tumor burdened lung) was “increased” and the “myeloid cell (Gr1+, Natural killer cells, dendritic cells, monocytes) numbers” value (KP tumor burdened lung) was “increased”. The tumor associated macrophages (KP tumor burdened lung) was “a reduction”.
